Earlier results on two compounds are cited in US9511030B2, “Controlled release particles” (priority 2011, dated 2016).

Turning to `C=C(C)C(=O)O` [Methacrylic acid], the water solubility was 8.9 mass %. For `CCCC1COC(Cn2cncn2)(c2ccc(Cl)cc2Cl)O1` (centres unmarked) [Propiconazole, 1-[2-(2,4-dichlorophenyl)-4-n-propyl-1,3-dioxolane-2-ylmethyl]-1H-1,2,4-triazole], the water solubility is on record as 110 ppm.
